Source: US12545685B2 (Daiichi Sankyo Company, Limited, priority 2011, dated 2026)

These molecules were tested against T1, Mdm2/p53 binding (GST-Mdm2 / His-p53) (Homo sapiens, UniProt Q00987, L33E) (assay: Mdm2/p53 binding assay (HTRF, His-p53 and GST-Mdm2)). Conditions: His-p53 (aa 1-132) and GST-Mdm2 (aa 25-108, L33E) 6.25 nM each; 25°C, 1 hour; values given as ranges.
T1 construct: Mdm2 partial protein having Mdm2 amino acids at positions 25 to 108
Experimental: A protein dilution containing 6.25 nM each of His-p53 (fusion protein of a p53 partial protein having p53 amino acids at positions 1 to 132, with a histidine protein) and GST-Mdm2 (fusion protein of an Mdm2 partial protein having Mdm2 amino acids at positions 25 to 108 with leucine residue 33 substituted by glutamic acid, with glutathione transferase) proteins was prepared using a protein buffer solution (20 mM HEPES pH 7.4, 150 mM NaCl, 0.1% BSA). This protein dilution was added in an amount of 8 μl/well to a 384-well plate (384-well low volume NBC, Corning Inc., catalog No: 3676).
Next, a test compound was diluted with DMSO to produce a protein buffer solution containing 10% dilution, and this buffer solution was added in an amount of 4 μl/well to the plate.
Subsequently, a solution containing an XL665-labeled anti-His antibody (HTRF monoclonal anti-6HIS antibody labeled with XL665 (catalog No: 61HISXLB), Schering/Cisbio Bioassays) and a europium (Eu)-labeled anti-GST antibody (HTRF monoclonal anti-GST antibody labeled with europium cryptate, Schering/Cisbio Bioassays, catalog No: 61GSTKLB) at concentrations of 2.5 μg/ml and 0.325 μg/ml, respectively, was prepared using an antibody diluting buffer solution (20 mM HEPES pH 7.4, 150 mM NaCl, 0.1% BSA, 0.5 M KF). These dilutions were added in an amount of 8 μl/well (total reaction solution volume: 20 μl/well). Then the plate was incubated at 25° ° C. for 1 hour.
Time-resolved fluorescence at 620 and 665 nm was measured at an excitation wavelength of 320 nm using a plate reader (ARVOsx, PerkinElmer Co., Ltd. or PHERAstar, BMG LABTECH). Ratio (R) was calculated using the measured values (RFU 620 nm and RFU 665 nm) according to the following formula: […]
BI: measured value at 665 nm of reaction solution (only each buffer solution) nonsupplemented with each protein, the compound, and the antibodies
A and D: each measured value at 665 nm and 620 nm of reaction solution supplemented with only Eu-labeled anti-GST antibody solution
The R value calculated from the well supplemented with His-p53, GST-Mdm2, the test compound, and each antibody was defined as R (sample). The R value calculated from the well supplemented with His-p53, GST-Mdm2, and each antibody but without the test compound was defined as R (control). The R value calculated from the well supplemented with GST-Mdm2 the test compound, and each antibody but without His-p53 was defined as R (background). T/C was calculated from the formula shown below. An IC50 value for Mdm2/p53 binding was calculated by sigmoid fitting.

T1 sequence (Q00987 25-108 L33E): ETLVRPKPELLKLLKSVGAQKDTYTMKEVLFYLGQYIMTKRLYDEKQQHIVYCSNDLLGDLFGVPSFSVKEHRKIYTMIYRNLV

Structure (SMILES)	IC50
CC1(C)CCC2(CC1)N[C@@H](C(=O)N[C@@H]1CC[C@@H](c3n[nH]c(=O)o3)OC1)[C@H](c1ccnc(Cl)c1)[C@]21C(=O)Nc2cc(Cl)ccc21 [Example 56, (3′R, 4′R, 5′R)-6″-chloro-4′-(2-chloropyridin-4-yl)-4,4-dimethyl-2″-Oxo-N-[(3R,6S)-6-(5-oxo-4,5-dihydro-1,3,4-oxadiazol-2-yl)tetrahydro-2H-pyran-3-yl]-1″,2″-dihydrodispiro[cyclohexane-1,2′-pyrrolidine-3′,3″-indole]-5′-carboxamide]	1 to 50 nM
CO[C@H]1C[C@@H](NC(=O)[C@@H]2NC3(CCC(C)(C)CC3)[C@@]3(C(=O)Nc4cc(Cl)ccc43)[C@H]2c2ccnc(Cl)c2)CO[C@@H]1CO [Example 59, (3′R, 4′R, 5′B)-6″-chloro-4′-(2-chloropyridin-4-yl)-N-[(3R,5S,6R)-6-(hydroxymethyl)-5-methoxytetrahydro-2H-pyran-3-yl]-4,4-dimethyl-2″-oxo-1″,2″-dihydrodispiro[cyclohexane-1,2′-pyrrolidine-3′,3″-indole]-5′-carboxamide]	50 to 100 nM
CC1(C)CCC2(CC1)N[C@@H](C(=O)N[C@@H]1C=C[C@@H](CO)OC1)[C@H](c1cccc(Cl)c1F)[C@]21C(=O)Nc2cc(Cl)ccc21 [Example 19, (3′R,4′S,5′R)-6″-chloro-4′-(3-chloro-2-fluorophenyl)-N-[(3R,6S)-6-(hydroxymethyl)-3,6-dihydro-2H-pyran-3-yl]-4,4-dimethyl-2″-oxo-1″,2″-dihydrodispiro[cyclohexane-1,2′-pyrrolidine-3′,3″-indole]-5′-carboxamide]	50 to 100 nM
CC1(C)CCC2(CC1)N[C@@H](C(=O)N[C@H]1CC[C@H](O)CC1)[C@H](c1cccc(Cl)c1F)[C@]21C(=O)Nc2cc(C#N)ccc21 [Example 15, (3′R, 4′S,5′R)-4′-(3-chloro-2-fluorophenyl)-6″-cyano-N-(trans-4-hydroxycyclohexyl)-4,4-dimethyl-2″-oxo-1″,2″-dihydrodispiro[cyclohexane-1,2′-pyrrolidine-3′,3″-indole]-5%-carboxamide]	50 to 100 nM
CC1(C)CCC2(CC1)N[C@@H](C(=O)N[C@@H]1CC[C@@H](C(N)=O)OC1)[C@H](c1ccnc(Cl)c1F)[C@]21C(=O)Nc2nc(Cl)ccc21 [Example 71, (3′R, 4′S, S′R)—N-[(3R,6S)-6-carbamoyltetrahydro-2H-pyran-3-yl]-6″-chloro-4′-(2-chloro-3-fluoropyridin-4-yl)-4,4-dimethyl-2″-oxo-1″,2″-dihydrodispiro[cyclohexane-1,2′-pyrrolidine-3′,3″-pyrrolo[2,3-b]pyridine]-5′-carboxamide]	1 to 50 nM
CC1(C)CCC2(CC1)N[C@@H](C(=O)N[C@@H]1CC[C@@H](C(O)CO)OC1)[C@H](c1ccnc(Cl)c1F)[C@]21C(=O)Nc2cc(Cl)ccc21 (single isomer, unassigned) [Example 89]	1 to 50 nM
CO[C@H]1C[C@@H](NC(=O)[C@@H]2NC3(CCC(C)(C)CC3)[C@@]3(C(=O)Nc4cc(Cl)ccc43)[C@H]2c2ccnc(Cl)c2F)CO[C@@H]1CO [Example 45, (3′R, 4′S,5′R)-6″-chloro-4′-(2-chloro-3-fluoropyridin-4-yl)-N-[(3R,5S,6R)-6-(hydroxymethyl)-5-methoxytetrahydro-2H-pyran-3-yl]-4,4-dimethyl-2″-oxo-1″,2″-dihydrodispiro[cyclohexane-1,2′-pyrrolidine-3′,3″-indole]-5′-carboxamide]	50 to 100 nM
CC1(C)CCC2(CC1)N[C@@H](C(=O)N[C@@H]1CC[C@@H](c3ncon3)OC1)[C@H](c1ccnc(Cl)c1F)[C@]21C(=O)Nc2nc(Cl)ccc21 [Example 66, (3′R, 4′S,5′R)-6″-chloro-4′-(2-chloro-3-fluoropyridin-4-yl)-4,4-dimethyl-N-[(3R,6S)-6-(1,2,4-oxadiazol-3-yl)tetrahydro-2H-pyran-3-yl]-2″-oxo-1″,2″-dihydrodispiro[cyclohexane-1,2′-pyrrolidine-3′,3″-pyrrolo[2,3-b]pyridine]-5′-carboxamide]	50 to 100 nM

Continued, values first:

IC50	Structure (SMILES)
50 to 100 nM	O=C(N[C@@H]1CC[C@@H](CO)OC1)[C@@H]1NC2(CC(CF)(CF)C2)[C@@]2(C(=O)Nc3cc(Cl)ccc32)[C@H]1c1cc(Cl)cc(Cl)c1 [Example 169, (3′R, 4′R, 5′R)-6″-chloro-4′-(3,5-dichlorophenyl)-3,3-bis(fluoromethyl)-N-[(3R,6S)-6-(hydroxymethyl)tetrahydro-2H-pyran-3-yl]-2″-oxo-1″,2″-dihydrodispiro[cyclobutane-1,2′-pyrrolidine-3′,3″-indole]-5′-carboxamide]
50 to 100 nM	CC(O)[C@@H]1CC[C@@H](NC(=O)[C@@H]2NC3(CC(CF)(CF)C3)[C@@]3(C(=O)Nc4cc(Cl)ccc43)[C@H]2c2cccc(Cl)c2F)CO1 (single isomer, unassigned) [Example 147]
50 to 100 nM	O=C(N[C@@H]1CC[C@@H](CO)OC1)[C@@H]1NC2(CC(CF)(CF)C2)[C@@]2(C(=O)Nc3cc(Cl)ccc32)[C@H]1c1cccc(Cl)c1 [Example 175, (3′R, 4′R, 5′R)-6″-chloro-4′-(3-chlorophenyl)-3,3-bis(fluoromethyl)-N-[(3R,6S)-6-(hydroxymethyl)tetrahydro-2H-pyran-3-yl]-2″-oxo-1″,2″-dihydrodispiro[cyclobutane-1,2′-pyrrolidine-3′,3″-indole]-5′-carboxamide]
50 to 100 nM	CN(C)C(=O)[C@@H]1CC[C@@H](NC(=O)[C@@H]2NC3(CCC(C)(C)CC3)[C@@]3(C(=O)Nc4cc(Cl)ccc43)[C@H]2c2ccnc(Cl)n2)CO1 [Example 140, (3′R, 4′R, 5′R)-6″-chloro-4′-(2-chloropyrimidin-4-yl)-N-[(3R,6S)-6-(dimethylcarbamoyl)tetrahydro-2H-pyran-3-yl]-4,4-dimethyl-2″-oxo-1″,2″-dihydrodispiro[cyclohexane-1,2′=pyrrolidine-3′,3″-indole]-5′-carboxamide]
1 to 50 nM	O=C(N[C@@H]1CC[C@@H](CO)OC1)[C@@H]1NC2(CC(CF)(CF)C2)[C@@]2(C(=O)Nc3cc(Cl)ccc32)[C@H]1c1cc(F)cc(Cl)c1F [Example 176, (3′R, 4′S,5′R)-6″-chloro-4′-(3-chloro-2,5-difluorophenyl)-3,3-bis(fluoromethyl)-N-[(3R,6S)-6-(hydroxymethyl)tetrahydro-2H-pyran-3-yl]-2″-oxo-1″,2″-dihydrodispiro[cyclobutane-1,2′-pyrrolidine-3′,3″-indole]-5′-carboxamide]
1 to 50 nM	CCNC(=O)[C@@H]1CC[C@@H](NC(=O)[C@@H]2NC3(CC(CF)(CF)C3)[C@@]3(C(=O)Nc4cc(Cl)ccc43)[C@H]2c2cccc(Cl)c2F)CO1 [Example 141]
1 to 50 nM	CC1(C)CCC2(CC1)N[C@@H](C(=O)NC1CCN(c3nnn[nH]3)CC1)[C@H](c1ccnc(Cl)c1F)[C@]21C(=O)Nc2cc(Cl)ccc21 [Example 178, (3′R, 4′S,5′8)-6″-chloro-4′-(2-chloro-3-fluoropyridin-4-yl)-4,4-dimethyl-2″-oxo-N-[1-(1H-tetrazol-5-yl)piperidin-4-yl]-1″,2″-dihydrodispiro[cyclohexane-1,2′-pyrrolidine-3′,3″-indole]-5′-carboxamide]
1 to 50 nM	COCCNC(=O)[C@@H]1CC[C@@H](NC(=O)[C@@H]2NC3(CCC(C)(C)CC3)[C@@]3(C(=O)Nc4cc(Cl)ccc43)[C@H]2c2ccnc(Cl)c2F)CO1 [Example 128, (3′R, 4′S,5′R)-6″-chloro-4′-(2-chloro-3-fluoropyridin-4-yl)-N-{(3R,6S)-6-[(2-methoxyethyl)carbamoyl]tetrahydro-2H-pyran-3-yl}-4,4-dimethyl-2″-oxo-1″,2″-dihydrodispiro[cyclohexane-1,2′-pyrrolidine-3′,3″-indole]-5′-carboxamide]
1 to 50 nM	CC1(C)CCC2(CC1)N[C@@H](C(=O)N[C@H]1CC[C@H](c3nnc(CO)o3)CC1)[C@H](c1ccnc(Cl)c1F)[C@]21C(=O)Nc2cc(Cl)ccc21 [Example 130, (3′R, 4′S,5′R)-6″-chloro-4′-(2-chloro-3-fluoropyridin-4-yl)-N-{trans-4-[5-(hydroxymethyl)-1,3,4-oxadiazol-2-yl]cyclohexyl}-4,4-dimethyl-2″-oxo-1″,2″-dihydrodispiro[cyclohexane-1,2′-pyrrolidine-3′,3″-indole]-5′-carboxamide]
